Reference: patent publication US20210024545A1, “SUBSTITUTED DIAZAHETERO-BICYCLIC COMPOUNDS AND THEIR USE” (Bayer Aktiengesellschaft, priority 2016, published 2021)

How the values were obtained:
human TASK-1 = human TASK-1 (Homo sapiens, UniProt O14649); experiment: Inhibition of recombinant TASK-1 in stably transfected CHO cells, KCl-induced depolarization, voltage-sensitive dye (B-2); assay type: cell-based; set-up: expressed in transfected cells; host or cells: stably transfected CHO cells; conditions: depolarization induced by 40 mM potassium chloride, some mean values from multiple determinations
Description: (§1) B-2. Inhibition of Recombinant TASK-1 and TASK-3 In Vitro
(§2) The investigations on the inhibition of the recombinant TASK-1 and TASK-3 channels were conducted using stably transfected CHO cells. The compounds of the invention were tested here with administration of 40 mM of potassium chloride in the presence of a voltage-sensitive dye using the method described in detail in the following references [Whiteaker et al., Validation of FLIPR membrane potential dye for high-throughput screening of potassium channel modulators, J. Biomol. Screen. 6 (5), 305-312 (2001); Molecular Devices FLIPR Application Note: Measuring membrane potential using the FLIPR® membrane potential assay kit on Fluorometric Imaging Plate Reader (FLIPR®) systems, http://www.moleculardevices.com/reagents-supplies/assay-kits/ion-channels/flipr-membrane-potential-assay-kits]. The activity of the test substances was determined as their ability to inhibit a depolarization induced in the recombinant cells by 40 mM potassium chloride. The concentration which can block half of this depolarization is referred to as IC50).
(§3) Table 2 below lists the IC50 values from this assay determined for individual working examples of the invention (some as mean values from multiple independent individual determinations): […]

human TASK-3 = human TASK-3 (Homo sapiens, UniProt Q9NPC2); experiment: Inhibition of recombinant TASK-3 in stably transfected CHO cells, KCl-induced depolarization, voltage-sensitive dye (B-2); assay type: cell-based; set-up: expressed in transfected cells; host or cells: stably transfected CHO cells; conditions: depolarization induced by 40 mM potassium chloride, some mean values from multiple determinations
Description: as §1, §2, §3

Chain of human TASK-1 (O14649 whole entry): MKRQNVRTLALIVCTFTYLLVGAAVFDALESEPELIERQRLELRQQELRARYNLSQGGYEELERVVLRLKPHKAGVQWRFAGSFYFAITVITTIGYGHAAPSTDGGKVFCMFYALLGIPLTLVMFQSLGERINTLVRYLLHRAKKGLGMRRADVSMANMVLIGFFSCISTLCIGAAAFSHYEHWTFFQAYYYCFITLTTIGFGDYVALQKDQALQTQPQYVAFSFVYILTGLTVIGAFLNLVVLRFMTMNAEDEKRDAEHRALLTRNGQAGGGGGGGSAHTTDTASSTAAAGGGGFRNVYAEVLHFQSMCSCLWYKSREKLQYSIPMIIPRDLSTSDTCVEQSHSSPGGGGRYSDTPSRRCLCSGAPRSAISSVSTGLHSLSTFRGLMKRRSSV
Chain of human TASK-3 (Q9NPC2 whole entry): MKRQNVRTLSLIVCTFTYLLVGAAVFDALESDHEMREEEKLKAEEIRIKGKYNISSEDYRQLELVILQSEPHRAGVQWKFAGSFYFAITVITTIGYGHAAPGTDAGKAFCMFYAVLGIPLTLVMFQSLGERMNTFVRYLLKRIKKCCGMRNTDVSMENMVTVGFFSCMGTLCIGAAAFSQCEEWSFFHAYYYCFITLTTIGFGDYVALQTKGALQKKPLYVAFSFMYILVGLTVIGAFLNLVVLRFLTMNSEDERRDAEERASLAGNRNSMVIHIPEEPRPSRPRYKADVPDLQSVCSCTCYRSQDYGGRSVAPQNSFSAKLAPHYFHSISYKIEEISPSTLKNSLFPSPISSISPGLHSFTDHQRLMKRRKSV

Structure (SMILES)	IC50 (human TASK-1)	IC50 (human TASK-3)
COc1ccc(F)cc1C(=O)N1C2CCC1CN(Cc1c(-c3ccc(Cl)cc3)nc3ccccn13)C2 [Example 103]	540 nM	20 nM
O=C(c1cccc(Cl)c1)N1C2CC1CN(Cc1c(-c3ccc(Cl)cc3)nc3ccccn13)C2 [Example 114]	480 nM	340 nM
COc1ccc(C)c(C(=O)N2CC3CCC(C2)N3Cc2c(-c3ccc(C(C)C)cc3)nc3ccccn23)n1 [Example 144, (8-{[2-(4-Isopropylphenyl)imidazo[1,2-a]pyridin-3-yl]methyl}-3,8-diazabicyclo[3.2.1]oct-3-yl)(6-methoxy-3-methylpyridin-2-yl)methanone]	180 nM	27 nM
O=C(C1CCC1)N1C2CC1CN(Cc1c(-c3ccc(Cl)cc3)nc3ccccn13)C2 [Example 121]	1700 nM	2800 nM
O=C(C1CCCC1)N1CC2CCC1CN2Cc1c(-c2ccc(Cl)cc2)nc2ccccn12 (single isomer, unassigned) [Example 37]	350 nM	63 nM
CC(C)(C)OC(=O)N1C2CCC1CN(Cc1c(-c3ccc(Br)cc3)nc3ccccn13)C2 [Example 11]	1400 nM	940 nM
COc1ccc(Cl)c(C(=O)N2CC3CCC2CN3Cc2c(-c3ccc(Cl)cn3)nc3ccccn23)n1 (single isomer, unassigned) [Example 67]	990 nM	220 nM
COc1cccc(C(=O)N2CC3CCC2CN3Cc2c(-c3ccc(Cl)cc3)nc3ccccn23)c1 (single isomer, unassigned) [Example 40]	533 nM	104 nM
CC(C)(C)OC(=O)N1CC2CCC(C1)N2Cc1c(-c2ccc(Br)cc2)nc2ccccn12 [Example 5]	200 nM	150 nM
O=C(N1CCCCC1)N1C2CCC1CN(Cc1c(-c3ccc(Cl)cc3)nc3ccccn13)C2 [Example 179, (3-{[2-(4-Chlorophenyl)imidazo[1,2-a]pyridin-3-yl]methyl}-3,8-diazabicyclo[3.2.1]oct-8-yl)(piperidin-1-yl)methanone]	270 nM	2.9 nM
CC(C)N(C(=O)N1C2COCC1CN(Cc1c(-c3ccc(Cl)cc3)nc3ccccn13)C2)C(C)C [Example 190, 7-{[2-(4-Chlorophenyl)imidazo[1,2-a]pyridin-3-yl]methyl}-N,N-diisopropyl-3-oxa-7,9-diazabicyclo[3.3.1]nonane-9-carboxamide]	170 nM	19 nM
Cc1cccc(C)c1NC(=O)N1C2CCC1CN(Cc1c(-c3ccc(Cl)cc3)nc3ccccn13)C2 [Example 157, 3-{[2-(4-Chlorophenyl)imidazo[1,2-a]pyridin-3-yl]methyl}-N-(2,6-dimethylphenyl)-3,8-diazabicyclo[3.2.1]octane-8-carboxamide]	24 nM	7.4 nM
O=C(C1CCCC1)N1C2CCC1CN(Cc1c(-c3ccc(Cl)cn3)nc3ccccn13)C2 [Example 113]	89 nM	21 nM
CC(C)N(C(=O)N1C2CCC1CN(Cc1c(-c3ccc(Cl)cc3)nc3ccccn13)C2)c1ccc(Cl)cc1 [Example 182, N-(4-Chlorophenyl)-3-{[2-(4-chlorophenyl)imidazo[1,2-a]pyridin-3-yl]methyl}-N-isopropyl-3,8-diazabicyclo[3.2.1]octane-8-carboxamide]	6100 nM	1000 nM
COc1ccc(Cl)c(C(=O)N2C3COCC2CN(Cc2c(-c4ccc(Cl)cc4)nc4ccccn24)C3)c1 [Example 74]	330 nM	23 nM
Cc1ccc(F)cc1C(=O)N1C2CCC1CN(Cc1c(-c3ccc(Cl)cc3)nc3ccccn13)C2 [Example 107]	1000 nM	33 nM
O=C(c1cccc(OC(F)(F)F)n1)N1C2COCC1CN(Cc1c(-c3ccc(Cl)cn3)nc3ccccn13)C2 [Example 135, (7-{[2-(5-Chloropyridin-2-yl)imidazo[1,2-a]pyridin-3-yl]methyl}-3-oxa-7,9-diazabicyclo[3.3.1]non-9-yl)[6-(trifluoromethoxy)pyridin-2-yl]methanone]	4100 nM	160 nM
O=C(N1CCOCC1)N1C2CCC1CN(Cc1c(-c3ccc(Cl)cc3)nc3ccccn13)C2 [Example 173, (3-{[2-(4-Chlorophenyl)imidazo[1,2-a]pyridin-3-yl]methyl}-3,8-diazabicyclo[3.2.1]oct-8-yl)(morpholin-4-yl)methanone]	1700 nM	32 nM
COc1ccc(Cl)c(C(=O)N2C3COCC2CN(Cc2c(-c4ccc(Cl)cc4)nc4ccccn24)C3)n1 [Example 32, (3-Chloro-6-methoxypyridin-2-yl)(7-{[2-(4-chlorophenyl)imidazo[1,2-a]pyridin-3-yl]methyl}-3-oxa-7,9-diazabicyclo[3.3.1]non-9-yl)methanone]	270 nM	9.6 nM
O=C(c1cccc(Cl)c1)N1CC2CCC1CN2Cc1c(-c2ccc(Cl)cc2)nc2ccccn12 (single isomer, unassigned) [Example 49]	740 nM	12 nM
O=C(C1CCCC1)N1CC2CCC1CN2Cc1c(-c2ccc(Cl)cc2)nc2ccccn12 (single isomer, unassigned) [Example 38]	790 nM	380 nM
COc1ccc(F)c(C(=O)N2C3CCC2CN(Cc2c(-c4ccc(Br)cc4)nc4ccccn24)C3)n1 [Example 140, (3-{[2-(4-Bromophenyl)imidazo[1,2-a]pyridin-3-yl]methyl}-3,8-diazabicyclo[3.2.1]oct-8-yl)(3-fluoro-6-methoxypyridin-2-yl)methanone]	160 nM	21 nM
CC(C)c1ccc(-c2nc3ccccn3c2CN2CC3CC(C2)N3C(=O)C2CCCC2)cc1 [Example 123]	2000 nM	1600 nM
Cc1cnc(C(=O)N2C3CCC2CN(Cc2c(-c4ccc(Cl)cc4)nc4ccccn24)C3)s1 [Example 149, (3-{[2-(4-Chlorophenyl)imidazo[1,2-a]pyridin-3-yl]methyl}-3,8-diazabicyclo[3.2.1]oct-8-yl)(5-methyl-1,3-thiazol-2-yl)methanone]	3000 nM	300 nM
CC(C)NC(=O)N1C2COCC1CN(Cc1c(-c3ccc(Cl)cc3)nc3ccccn13)C2 [Example 168, 7-{[2-(4-Chlorophenyl)imidazo[1,2-a]pyridin-3-yl]methyl}-N-isopropyl-3-oxa-7,9-diazabicyclo[3.3.1]nonane-9-carboxamide]	1400 nM	130 nM
O=C(c1ccccc1F)N1CC2CCC(C1)N2Cc1c(-c2ccc(Cl)cc2)nc2ccccn12 [Example 87]	583 nM	160 nM
CCOC(=O)N1C2CCC1CN(Cc1c(-c3ccc(Cl)cc3)nc3ccccn13)C2 [Example 185, Ethyl 3-{[2-(4-chlorophenyl)imidazo[1,2-a]pyridin-3-yl]methyl}-3,8-diazabicyclo[3.2.1]octane-8-carboxylate]	120 nM	
Cc1cccc(Cl)c1NC(=O)N1C2CCC1CN(Cc1c(-c3ccc(Cl)cc3)nc3ccccn13)C2 [Example 165, N-(2-Chloro-6-methylphenyl)-3-{[2-(4-chlorophenyl)imidazo[1,2-a]pyridin-3-yl]methyl}-3,8-diazabicyclo[3.2.1]octane-8-carboxamide]	25 nM	
COc1cccc(C(=O)N2CC3CCC2CN3Cc2c(-c3ccc(C(C)C)cc3)nc3ccccn23)n1 (single isomer, unassigned) [Example 60]		610 nM
